Measurements: the RepoRT retention time repository (doi:10.1039/c4mb00346b)

Assay: HILIC, Merck SeQuant ZIC-pHILIC, 150 × 2.1 mm, 5 µm, 0.1 mL/min, estimated dead time 3.3 min; A: acetonitrile; B: water + 10 mM ammonium carbonate; gradient (min/%B) 0/20 30/80
Conditions: stereoisomer not certain

`NC(=O)C1=CN(C2OC(COP(=O)(O)OP(=O)(O)OCC3OC(n4cnc5c(N)ncnc54)C(OP(=O)(O)O)C3O)C(O)C2O)C=CC1` (stereo not drawn) [NADPH] showed an LC retention time of 14.8 min.

Work on `NC(=O)c1cccnc1` [Nicotinamide] yielded an LC retention time of 4.7 min.

For `CCCCCCCC(=O)OC(CC(=O)[O-])C[N+](C)(C)C` (stereo not drawn) [Octanoyl-carnitine], the LC retention time was 4.1 min.

Compound `CCC(NC(=O)CCC(N)C(=O)O)C(=O)NCC(=O)O` (stereo not drawn) [Ophthalmic acid] has an LC retention time of 11.2 min.

Compound `NCCCC(N)C(=O)O` (stereo not drawn) [Ornithine] has an LC retention time of 20.8 min.

Work on `O=P(O)(O)OCC1OC(OP(=O)(O)OP(=O)(O)O)C(O)C1O` [PRPP (5-Phospho-alpha-D-ribose 1-diphosphate)] yielded an LC retention time of 16.5 min.

With `CC(C)(CO)C(O)C(=O)NCCC(=O)O` (stereo not drawn) [Pantothenate] the LC retention time was 6.1 min.

For `NC(Cc1ccccc1)C(=O)O` (stereo not drawn) [Phenylalanine], the LC retention time was 7.3 min.

`CN(CC(=O)O)C(N)=NP(=O)(O)O` [Phosphocreatine] gave an LC retention time of 12.7 min.

Compound `C=C(OP(=O)(O)O)C(=O)[O-]` [Phosphoenolpyruvate] has an LC retention time of 15.1 min.

In the case of `O=C(O)C1CCCN1` (stereo not drawn) [Proline], the LC retention time is reported as 10.2 min.

With `CCC(=O)OC(CC(=O)[O-])C[N+](C)(C)C` (stereo not drawn) [Propionyl-carnitine] the LC retention time was 7.2 min.

With `O=C(O)C1(O)CC(O)C(O)C(O)C1` (stereo not drawn) [Quinic acid] the LC retention time was 10.4 min.

Compound `O=C(O)c1cccnc1C(=O)O` [Quinolinic acid] has an LC retention time of 12.7 min.

With `Nc1ncnc2c1ncn2C1OC(CSCCC([NH3+])C(=O)[O-])C(O)C1O` (stereo not drawn) [S-Adenosyl-homocysteine] the LC retention time was 11.2 min.

For `C[S+](CCC(N)C(=O)[O-])CC1OC(n2cnc3c(N)ncnc32)C(O)C1O` (stereo not drawn) [S-Adenosyl-methionine], the LC retention time was 14.2 min.

`CSc1ncc(CC(C(=O)[O-])[N+](C)(C)C)[nH]1` (stereo not drawn) [S-Methyl-ergothioneine] showed an LC retention time of 7.9 min.

Work on `Nc1ncnc2c1ncn2C1OC(CSCC(N)C(=O)O)C(O)C1O` (stereo not drawn) [S-adenosyl-cysteine] yielded an LC retention time of 10.6 min.

`Nc1c(C(=O)NC(CC(=O)O)C(=O)O)ncn1C1OC(COP(=O)(O)O)C(O)C1O` (stereo not drawn) [SAICAR] showed an LC retention time of 17.1 min.

`NC(CCCCNC(CCC(=O)O)C(=O)O)C(=O)O` (stereo not drawn) [Saccharopine] showed an LC retention time of 13.3 min.

Work on `O=C(CO)C(O)C(O)C(O)C(O)COP(=O)(O)O` (stereo not drawn) [Sedoheptulose-7-phosphate] yielded an LC retention time of 13.7 min.

`NC(CO)C(=O)O` (stereo not drawn) [Serine] showed an LC retention time of 13.1 min.

`O=C(O)CCC(=O)O` [Succinate] showed an LC retention time of 12.6 min.

Compound `NCCS(=O)(=O)O` [Taurine] has an LC retention time of 12.1 min.

Compound `CC(O)C(N)C(=O)O` (stereo not drawn) [Threonine] has an LC retention time of 11.7 min.

`O=P(O)(O)OCC1OC(OC2OC(CO)C(O)C(O)C2O)C(O)C(O)C1O` (stereo not drawn) [Trehalose-6-phosphate] gave an LC retention time of 14.7 min.

For `OCC1OC(OC2OC(CO)C(O)C(O)C2O)C(O)C(O)C1O` (stereo not drawn) [Trehalose], the LC retention time was 13.6 min.

Compound `C[N+](C)(C)C(Cc1cnc[nH]1)C(=O)[O-]` (stereo not drawn) [Trimethyl-histidine (hercynine)] has an LC retention time of 9.7 min.

With `C[N+](C)(C)CCCCC(N)C(=O)[O-]` (stereo not drawn) [Trimethyl-lysine] the LC retention time was 20.7 min.

`C[N+](C)(C)C(Cc1c[nH]c2ccccc12)C(=O)[O-]` (stereo not drawn) [Trimethyl-tryptophan (hypaphorine)] gave an LC retention time of 6 min.

With `NC(Cc1c[nH]c2ccccc12)C(=O)O` (stereo not drawn) [Tryptophan] the LC retention time was 8.7 min.

`NC(Cc1ccc(O)cc1)C(=O)O` (stereo not drawn) [Tyrosine] gave an LC retention time of 10.3 min.

In the case of `CC(=O)NC1C(OP(=O)(O)OP(=O)(O)OCC2OC(n3ccc(=O)[nH]c3=O)C(O)C2O)OC(CO)C(O)C1O` (stereo not drawn) [UDP-acetyl-glucosamine], the LC retention time is reported as 12.8 min.

For `O=C(O)C1OC(OP(=O)(O)OP(=O)(O)OCC2OC(n3ccc(=O)[nH]c3=O)C(O)C2O)C(O)C(O)C1O` (stereo not drawn) [UDP-glucuronate], the LC retention time was 16.5 min.

Work on `O=c1ccn(C2OC(COP(=O)(O)OP(=O)(O)O)C(O)C2O)c(=O)[nH]1` (stereo not drawn) [UDP] yielded an LC retention time of 14 min.

Work on `O=c1ccn(C2OC(COP(=O)(O)O)C(O)C2O)c(=O)[nH]1` (stereo not drawn) [UMP] yielded an LC retention time of 12.6 min.

For `O=c1ccn(C2OC(COP(=O)(O)OP(=O)(O)OP(=O)(O)O)C(O)C2O)c(=O)[nH]1` (stereo not drawn) [UTP], the LC retention time was 15.1 min.

Compound `O=c1cc[nH]c(=O)[nH]1` [Uracil] has an LC retention time of 7.2 min.

For `O=c1[nH]c(=O)c2[nH]c(=O)[nH]c2[nH]1` [Urate], the LC retention time was 10.7 min.

Work on `O=c1ccn(C2OC(CO)C(O)C2O)c(=O)[nH]1` (stereo not drawn) [Uridine] yielded an LC retention time of 7.1 min.

For `CC(C)C(N)C(=O)O` (stereo not drawn) [Valine], the LC retention time was 9.8 min.

`O=C(O)C=C(CC(=O)O)C(=O)O` [cis-Aconitate] showed an LC retention time of 15.5 min.

With `OC1C(O)C(O)C(O)C(O)C1O` (stereo not drawn) [myo-Inositol] the LC retention time was 14.4 min.
